The source of these data is patent US20120252721A1 (priority 2011, published 2012).

The test system of one data set is HCV. Conditions: combination therapy (Poynard et al.); cited from earlier work.
In data set [1] the test system is HCV genotype 1b Con1 strain subgenomic luciferase replicon (Zluc). As to the kind of experiment: Luciferase replicon assay, genotype 1b. Conditions: Hepatitis C virus. The data set is classed as cell-based. In a few lines: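 Replicon-bearing Huh-7 cells (1×10^4 H1a-luc or 7.5×10^3 Zluc per well) dosed 3 h after plating with ten 5-fold compound dilutions, 72 h at 37 °C/5% CO2. Luciferase measured by ONE-glo luminescence; EC50 from dose-response fits, replicon-free Huh-7 as negative control.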

Another data set deals with HCV genotype 2a. As to the kind of experiment: Genotype 2a assay (NS5A-intergenotypic luciferase replicon / genotype 2a infectious virus assay). The data set is classed as cell-based. Conditions: Hepatitis C virus, read-out: EC50 2a. From the text: (§1) The nucleotide sequences of the NS5A region of genotype 2a (GenBank Accession # AB047639), genotype 3a (GenBank Accession #D17763), and genotype 4a (GenBank Accession# DQ418788) were synthesized by an outside vendor. The NS5A region of each of these genotypes included the first 11 amino acids of the protease recognition sequence of genotype 1b, as well as the last 10 amino acids of genotype 1b. The NS5A gene cassettes were excised with site specific restriction endonucleases and ligated into a ZS11-luciferase genotype 1b backbone (backbone contains the genotype 1b NS3 protease, NS4a, NS4b, and NS5b coding regions) with similarly cut restriction enzyme sites. Thus, the newly constructed plasmid contains a genotype 2a-, 3a- or 4a-specific NS5A gene within the 1b-replicon.
(§2) These new intergenotypic plasmids were used to establish stable cell lines. RNA was generated from the NS5A intergenotypic plasmids and used in conjunction with a lipofectin reagent to transfect a cured Huh7 cell line. Transfected cells were selected for with G418. After selection has occurred the stable cell lines were propagated, tested for luciferase activity, and RT-PCR with genotype specific primers (either 1a, 2a, 3a, or 4a). Stable cell lines containing the intergenotypic replicon were then fully sequenced and analyzed for proper expression of NS3, NS5A and NS5B proteins.
(§3) Drug titration analysis was performed using the luciferase replicon assay described herein.
The genotype 2a infectious virus assay measures the ability of a test compound to inhibit HCV replication in cell culture after 5 days of treatment at the time of HCV genotype 2a virus infection of a permissive human hepatoma cell line (HPC cells). The inhibition of HCV replication was measured by quantification of HCV core protein expression by an enzyme-linked immunosorbent assay (ELISA). Briefly, HPC cells were grown in DMEM containing glucose, L-glutamine and sodium pyruvate, 10% FBS, 100 IU/mL penicillin, 100 μg/mL streptomycin, 2 mM GlutaMAX, and non-essential amino acids. GlutaMAX was obtained from Invitrogen, Corp.; all other media reagents were obtained from Mediatech, Inc. For dose-response testing, ninety-six-well plates were seeded with HPC cells at a density of 2.5×10^3 cells/well in a volume of 50 μL, and incubated at 37° C./5% CO2. Three hours after plating, 50 μL of ten 5-fold serial dilutions of compound and 100 μL of genotype 2a virus were added, and cell cultures were incubated at 37° C./5% CO2. In all cases, mock infected HPC cells served as negative control. At 16 hours post treatment and infection, the virus inoculum was removed by aspiration. The cultures were treated at the same final concentrations of drug diluted in media and incubated for 4 additional days at 37° C./5% CO2. Subsequently, the core ELISA was performed as follows. The plates were fixed for 90 seconds with acetone/methanol (1:1, v/v), washed three times with KPL wash solution (KPL, Inc.), blocked for 1 hr at room temperature with TNE buffer containing 10% FBS and then incubated for 2 hr at 37° C. with the anti-HCV core mouse monoclonal antibody (Thermo Scientific) diluted in the same buffer. After washing three times with KPL wash solution, the cells were incubated for 1 hr at 37° C. with an anti-mouse immunoglobulin G-peroxidase conjugate in TNE/10% FBS. After washing as described above, the reaction was developed with O-phenylenediamine (Invitrogen). The reaction was stopped after 30 min with 2 NH2SO4, and absorbance was read at 490 nm in a Victor^3V 1420 multilabel counter (Perkin Elmer) and EC50 concentrations were determined using Microsoft Excel and XLfit 4.1 software.
The HCV luciferase replicon assay measures the ability of a test compound to inhibit HCV replication in cell culture after 3 days of treatment in a human hepatoma cell line (Huh-7) bearing an HCV replicon containing a luciferase-neomycin phosphotransferase fusion gene. […]

Data set [2] relates to HCV genotype 3a NS5A within the 1b-replicon. As to the kind of experiment: Luciferase replicon assay, NS5A-intergenotypic stable cell line genotype 3a. Conditions: Hepatitis C virus, read-out: EC50 3a. It is filed as cell-based.
Description: as §1, §2, §3
(§4) The HCV luciferase replicon assay measures the ability of a test compound to inhibit HCV replication in cell culture after 3 days of treatment in a human hepatoma cell line (Huh-7) bearing an HCV replicon containing a luciferase-neomycin phosphotransferase fusion gene. The inhibition of HCV replication was measured by quantification of luciferase protein expression. Briefly, Huh-7 cells containing either the HCV genotype 1a H77 strain or genotype 1b Con1 strain subgenomic luciferase replicon (H1a-luc or Zluc, respectively) were grown in DMEM containing glucose, L-glutamine and sodium pyruvate, 10% fetal bovine serum (FBS), 100 IU/mL penicillin, 100 μg/mL streptomycin, 2 mM GlutaMAX, non-essential amino acids and 0.25 (H1a-luc) or 0.5 (Zluc) mg/mL G418. GlutaMAX was obtained from Invitrogen, Corp.; all other media reagents were obtained from Mediatech, Inc. For dose-response testing, the cells were seeded in 96-well plates at 1×10^4 (H1a-luc) or 7.5×10^3 (Zluc) cells/well in a volume of 50 μL, and incubated at 37° C./5% CO2. Three hours after plating, 50 μL of ten 5-fold serial dilutions of compound were added, and cell cultures were incubated at 37° C./5% CO2 for 72 hours. In all cases, Huh-7 cells lacking the HCV replicon served as negative control. To assess luciferase expression, the media/compound was removed from the plates and ONE-glo Luciferase assay reagent (Promega) was added to each well. The assay plates were shaken for 3 minutes at room temperature and luciferase activity for each well was measured with a 1 sec read time on the Victor^3V multilabel counter using a 700 nm cut-off filter (Perkin Elmer). EC50 values were calculated from dose response curves from the resulting best-fit equations determined by Microsoft Excel and XLfit 4.1 software.
(In antiviral work, replicon cells carry a viral genome segment that copies itself.)

Data set [3] concerns HCV genotype 4a NS5A within the 1b-replicon. As to the kind of experiment: Luciferase replicon assay, NS5A-intergenotypic stable cell line genotype 4a. It is filed as cell-based. Conditions: Hepatitis C virus, read-out: EC50 4a.
Description: as §1, §2, §3, §4

Data set [4] relates to HCV genotype 1a H77 strain subgenomic luciferase replicon (H1a-luc). Nature of the data set: Luciferase replicon assay, genotype 1a. The data set is classed as cell-based. The following applies: Hepatitis C virus; genotype 1a; read-out: EC50 1a. In a few lines:
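Huh-7 cells carrying H1a-luc subgenomic replicon (luciferase-neomycin phosphotransferase fusion), seeded at 1×10^4 cells/well, dosed 3 h later with ten 5-fold compound dilutions for 72 h at 37 °C. Replication read as luciferase luminescence; replicon-free Huh-7 cells as negative control. EC50 from dose-response curve fits.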

A further data set in a line: in vitro. Conditions: human; Table 1B, cellular viability. The data set is classed as cell-based, human. In outline:
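Cytotoxicity counter-screen in which the H1a-luc or Zluc cells were compound-treated and viability was read with the CellTiter 96 AQueous One (MTS) reagent by absorbance at 490 nm. CC50 values came from curve fitting.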

pEC50: −log10 of the molar value.

Regarding alpha-interferon and ribavirin, in the data set on HCV, the “sustained efficacy, share of patients” value was “about 40%”.
A word on the pEC50: it is the EC50 on a negative log10 scale, so that one unit is a factor of ten. One may read the CC50 as the concentration at which the toxic effect on the cells reaches its halfway point. A high value points to lower toxicity to the cells. On to `COC(=O)N[C@H](C(=O)N1CCC[C@H]1c1ncc(-c2ccc(-c3cc4sc(-c5ccc6[nH]c([C@@H]7CCCN7C(=O)[C@H](NC(=O)OC)c7ccccc7)nc6c5)cc4s3)cc2)[nH]1)C(C)C` [Compound A194, [(S)-1-((S)-2-{4-[4-(5-{(S)-2-[1-((R)-2-methoxycarbonylamino-2-phenyl-acetyl)-pyrrolidin-2-yl]-3H-benzoimidazol-5-yl}-thieno[3,2-b]thiophen-2-yl)-phenyl]-1H-imidazol-2-yl}-pyrrolidine-1-carbonyl)-2-methyl-propyl]-carbamic acid methyl ester], for which the pEC50 in data set [1] was more than 10.00; in the data set with HCV genotype 2a it was 8.00 to 9.00; in data set [2] it was 9.00 to 10.00; in data set [3] it was more than 10.00; in data set [4], 9.00 to 10.00. For the same molecule, the CC50 in the data set “in vitro” is more than 75000 nM.
On to `COC(=O)N[C@@H](C(=O)N1CCCC1c1nc2ccc(-c3csc4c(-c5ccc6[nH]c(C7CCCN7C(=O)[C@H](NC(=O)OC)C(C)C)nc6c5)csc34)cc2[nH]1)c1ccccc1` (stereo partly drawn) [Compound A208], for which the pEC50 (in data set [1]; in the data set with HCV genotype 2a; in data set [2]; in data set [3]; in data set [4]) was more than 10.00 throughout. The molecule further came in with a CC50 in the data set “in vitro” of more than 75000 nM.
For `COC(=O)N[C@H](C(=O)N1CCC[C@H]1c1nc2ccc(-c3csc4c(C#Cc5cnc([C@@H]6CCCN6C(=O)[C@H](NC(=O)OC)c6ccccc6)[nH]5)csc34)cc2[nH]1)C(C)C` [Compound A206], the pEC50 (in data set [1]; in the data set on HCV genotype 2a; in data set [2]; in data set [3]) was more than 10.00 throughout. Besides, the cytotoxic concentration (CC50) in “in vitro” is more than 75000 nM.
With `COC(=O)NC(C(=O)N1CCCC1c1ncc(-c2cc3sc(-c4ccc5[nH]c(C6CCCN6C(=O)C(NC(=O)OC)C(C)C)nc5c4)cc3s2)[nH]1)C(C)C` (stereo in doubt) [Compound A176, ((S)-1-{(S)-2-[5-(5-{(S)-2-[1-((S)-2-methoxycarbonylamino-3-methyl-butyryl)-pyrrolidin-2-yl]-3H-benzoimidazol-5-yl}-thieno[3,2-b]thiophen-2-yl)-1H-imidazol-2-yl]-pyrrolidine-1-carbonyl}-2-methyl-propyl)-carbamic acid methyl ester], the pEC50 in data set [1] was more than 10.00; with HCV genotype 2a, 9.00 to 10.00; in data set [2] it was 9.00 to 10.00; in data set [3] it was 9.00 to 10.00; in data set [4], 9.00 to 10.00. The same molecule came in with a CC50 in the data set “in vitro” of 10000 to 75000 nM.
